Common to all, as to type: in vivo
In assay [1] the test system is larvae of the fall army worm (Spodoptera frugiperda). Nature of the assay: Spodoptera frugiperda test (cabbage leaf dip, mortality). The conditions noted are these: mortality after 4 days, cabbage leaves dipped.
Assay [2] deals with larvae of the diamond black moth Plutella xylostella. In words: Plutella xylostella test (cabbage leaf dip, mortality). The note with it: mortality after 6 days, cabbage leaves dipped.
For assay [3], the system named is larvae of the beet army worm (Spodoptera exigua). Nature of the assay: Spodoptera exigua test (cabbage leaf dip, mortality). The conditions noted are these: mortality after 4 days, cabbage leaves dipped.

In assay [1] (rate of application 4 ppm), `CN/C(=N\[N+](=O)[O-])NCc1cnc(Cl)s1` [clothianidin] registered an Efficacy of 50%.
For `O=[N+]([O-])NC1=NCCN1Cc1ccc(Cl)nc1` [imidacloprid], the Efficacy in assay [2] (rate of application 100 ppm) was 15%.
As for `CCCOC(=O)NCCCN(C)C.Cl` [propamocarb-HCl, propyl[3-(dimethylamino)propyl]carbamate hydrochloride], the results for the Efficacy in assay [2] (rate of application 200 ppm), in assay [3] (rate of application 200 ppm) and in assay [1] (rate of application 200 ppm) were 0%, 0% and 10%, respectively.
Regarding `N#C/N=C1\SCCN1Cc1ccc(Cl)nc1` [thiacloprid], the Efficacy in assay [1] (rate of application 20 ppm) is listed as 0%.
`CN1COCN(Cc2cnc(Cl)s2)/C1=N\[N+](=O)[O-]` [thiamethoxam] came in with an Efficacy in assay [3] (rate of application 20 ppm) of 0%.

Values taken from patent publication US9210935B2, “Pesticide composition comprising fosetyl-aluminium, propamocarb-HCl and an insecticide active substance” (BAYER INTELLECTUAL PROPERTY GMBH, priority 2006, dated 2015).
